From patent US8932590B2, “Method of adsorbing transforming growth factor β” (TORAY Industries, Inc., priority 2002, dated 2015)
Counter-ions that a name gives are not always drawn.

How the values were obtained:
tumor [1] = assay: Combined treatment of anticancer agent and extracorporeal perfusion: tumor volume; type: in vivo, rat; settings: anticancer agent administered, no extracorporeal perfusion
Experimental: The dimensions of the tumor region of a rat were measured using micrometer calipers. The longest diameter of the tumor was defined as the major axis, and a diameter of the tumor passing through the midpoint of the major axis in a direction perpendicular to the major axis was defined as the minor axis. The tumor volume was defined according to the following equation: Tumor Volume=(Major Axis)×(Minor Axis)×(Minor Axis)×0.5[Adsorbent for TGF β and Immunosuppressive Acidic Protein] […]
One week after the inoculation of cancer cells (rat body weight: 400 to 430 g), 0.6 mg of gemcitabine hydrochloride was injected in the vicinity of the tumor. The gemcitabine hydrochloride used herein was prepared by dissolving an injection preparation thereof (available from Eli Lilly Japan K.K.) in physiological saline to yield a 20 mg/mL solution. […]
Six rats were treated, and the tumor volumes after the inoculation of cancer cells were determined. The results in Comparative Examples 15 to 20, in which the anticancer agent was administered but the extracorporeal perfusion treatment was not carried out, are shown in Table 5.

tumor [2] = assay: Visual observation of tumor metastasis; type: in vivo, rat; settings: rats dissected 35 days after the extracorporeal perfusion, region other than beneath the back skin
From the text: The test procedures of Examples 10 to 15 and Comparative Examples 11 to 22 were repeated, except for using three other rats (Examples 16 to 18, and Comparative Examples 21 to 26). The metastasis of the tumor to a region other than beneath the back skin to which the tumor was inoculated was visually observed (Table 6). The rats were dissected 35 days after the extracorporeal perfusion, and the tumor was observed. As a result, the metastasis was hardly observed in cases in which the extracorporeal perfusion treatment was carried out two days into the administration of gemcitabine hydrochloride.

SMILES: Nc1ccn([C@@H]2O[C@H](CO)[C@@H](O)C2(F)F)c(=O)n1 [Comparative Example 15, gemcitabine hydrochloride]
- Tumor volume (tumor [1]; 14 days after inoculation of cancer cells): <0.06 mL
- Tumor volume (tumor [1]; 21 days after inoculation of cancer cells, hydrochloride): 4.3 mL
- Tumor volume (tumor [1]; 21 days after inoculation of cancer cells, listed as Comparative Example 16, hydrochloride): 7.9 mL
- Tumor volume (tumor [1]; 21 days after inoculation of cancer cells, listed as Comparative Example 17, hydrochloride): 6.6 mL
- Tumor volume (tumor [1]; 21 days after inoculation of cancer cells, listed as Comparative Example 18, hydrochloride): 7.4 mL
- Tumor volume (tumor [1]; 21 days after inoculation of cancer cells, listed as Comparative Example 19, hydrochloride): 7.0 mL
- Tumor volume (tumor [1]; 21 days after inoculation of cancer cells, listed as Comparative Example 20, hydrochloride): 4.5 mL
- Tumor volume (tumor [1]; 28 days after inoculation of cancer cells, hydrochloride): 26 mL
- Tumor volume (tumor [1]; 28 days after inoculation of cancer cells, listed as Comparative Example 16, hydrochloride): 41 mL
- Tumor volume (tumor [1]; 28 days after inoculation of cancer cells, listed as Comparative Example 17, hydrochloride): 24 mL
- Tumor volume (tumor [1]; 28 days after inoculation of cancer cells, listed as Comparative Example 18, hydrochloride): 35 mL
- Tumor volume (tumor [1]; 28 days after inoculation of cancer cells, listed as Comparative Example 19, hydrochloride): 30 mL
- Tumor volume (tumor [1]; 28 days after inoculation of cancer cells, listed as Comparative Example 20, hydrochloride): 25 mL
- Tumor volume (tumor [1]; 35 days after inoculation of cancer cells, hydrochloride): 41 mL
- Tumor volume (tumor [1]; 35 days after inoculation of cancer cells, listed as Comparative Example 16, hydrochloride): 59 mL
- Tumor volume (tumor [1]; 35 days after inoculation of cancer cells, listed as Comparative Example 17, hydrochloride): 38 mL
- Tumor volume (tumor [1]; 35 days after inoculation of cancer cells, listed as Comparative Example 18, hydrochloride): 54 mL
- Tumor volume (tumor [1]; 35 days after inoculation of cancer cells, listed as Comparative Example 19, hydrochloride): 47 mL
- Tumor volume (tumor [1]; 35 days after inoculation of cancer cells, listed as Comparative Example 20, hydrochloride): 37 mL
- Metastasis (visual observation) (tumor [2]; listed as Com. Ex. 25, hydrochloride): dermic micrometastasis (2 mm
- Metastasis (visual observation) (tumor [2]; listed as Com. Ex. 26, hydrochloride): dermic micrometastasis (2 mm
